# Measurements from patent US9938274B1, “Naphthyridine compounds, medical combinations and use thereof” (Nanjing Natinefy Pharmatech Co., Ltd., priority 2016, dated 2018).
# Tests used:
# [1] = biological target: RET (Homo sapiens (Human), UniProt P07949); test: HTRF KinEASE TK kinase inhibition assay, RET; format: biochemical
# Experimental: A study on inhibition of protein kinases activity at in vitro biochemical level
# Material and method: kinases such as c-Met, VEGFR-2, Axl and RET, obtained from Invitrogen; HTRF KinEASE; TK kit (Cisbio Company); 384-well plate (Greiner Company); ATP (Sigma Company), MgCl2 (Sigma Company); PHERAstar FS multifunctional plate reader (BMG Company); conventional centrifuge (StaiteXiangyi Company); incubator (Binder Company).
# Preparation of working solution of the compounds: Before test, aliquots of the compounds are removed from the refrigerator, and diluted with pure DMSO to 50× of the level needed; and then the compounds are diluted with deionized water to 4× of the level needed;
# Preparation of 1.33× enzymatic buffer: 5× enzymatic buffer (from HTRF kit) is diluted to 1.33× with deionized water, and appropriate components of the final level 1.33× are added: 1.33 mmol/L dithiothreitol (DTT) and 1.33 mmol/L MgCl2;
# Preparation of kinase working solution: Met is diluted to 2× final level required, 0.2 ng/μL, with 1.33× enzymatic buffer; […]
# Reading HTRF signal: PHERAstar FS is used to read the testing signal, and its setting is as following:
# For the original data read from each well, ratio=665 nm/620 nm; […]
# [2] = In vivo pharmacokinetic study in rats
# Experimental: An In Vivo Pharmacokinetic Study in Rats
# For intravenous injection, rats are given a dose of 1 mg/kg. For oral administration, rats are given a dose of 5 mg/kg. […] The whole blood is centrifuged at 8000 rpm for 5 min to collect plasma, which is then transferred to 96-well pallet, and stored at −20° C. till LC-MS/MS testing.
# Pharmacokinetic parameters among rats after medication are estimated using the non-compartment model of software WinNonlin.
# The peak concentration, Cmax: the actual measurements are used;
# [3] = test system: U87MG tumor; test: Tumor xenograft model, U87MG, tumor growth inhibition; format: in vivo, nude mice (BALB/cA nu/nu); conditions: for Tumor growth inhibition rate, % TGI: day 22
# [4] = biological target: Axl kinase (Homo sapiens (Human), UniProt P30530); test: HTRF KinEASE TK kinase inhibition assay, Axl; format: biochemical
# Sequence of Axl kinase (P30530 26-894): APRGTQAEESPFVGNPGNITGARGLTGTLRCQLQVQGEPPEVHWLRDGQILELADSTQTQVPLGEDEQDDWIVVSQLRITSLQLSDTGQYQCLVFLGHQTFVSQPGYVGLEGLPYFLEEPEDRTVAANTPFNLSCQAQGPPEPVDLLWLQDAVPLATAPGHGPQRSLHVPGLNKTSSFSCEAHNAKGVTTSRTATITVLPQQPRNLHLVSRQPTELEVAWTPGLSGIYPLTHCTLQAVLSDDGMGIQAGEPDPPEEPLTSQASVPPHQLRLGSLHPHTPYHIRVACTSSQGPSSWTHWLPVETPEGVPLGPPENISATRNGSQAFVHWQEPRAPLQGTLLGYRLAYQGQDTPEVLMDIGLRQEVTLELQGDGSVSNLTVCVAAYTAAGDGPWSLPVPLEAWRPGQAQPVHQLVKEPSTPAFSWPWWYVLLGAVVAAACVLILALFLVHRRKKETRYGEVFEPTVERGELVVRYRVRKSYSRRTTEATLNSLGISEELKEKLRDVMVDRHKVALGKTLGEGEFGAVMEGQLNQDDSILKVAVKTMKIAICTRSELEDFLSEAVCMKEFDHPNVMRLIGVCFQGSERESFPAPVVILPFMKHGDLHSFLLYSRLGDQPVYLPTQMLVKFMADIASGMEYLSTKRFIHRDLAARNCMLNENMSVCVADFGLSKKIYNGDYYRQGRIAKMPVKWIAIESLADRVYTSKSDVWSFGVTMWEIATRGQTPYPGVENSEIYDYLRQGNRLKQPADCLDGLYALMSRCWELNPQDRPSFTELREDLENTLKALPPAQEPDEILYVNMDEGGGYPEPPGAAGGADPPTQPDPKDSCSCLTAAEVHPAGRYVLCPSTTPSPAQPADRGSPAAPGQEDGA
# Sequence of RET (P07949 29-1114): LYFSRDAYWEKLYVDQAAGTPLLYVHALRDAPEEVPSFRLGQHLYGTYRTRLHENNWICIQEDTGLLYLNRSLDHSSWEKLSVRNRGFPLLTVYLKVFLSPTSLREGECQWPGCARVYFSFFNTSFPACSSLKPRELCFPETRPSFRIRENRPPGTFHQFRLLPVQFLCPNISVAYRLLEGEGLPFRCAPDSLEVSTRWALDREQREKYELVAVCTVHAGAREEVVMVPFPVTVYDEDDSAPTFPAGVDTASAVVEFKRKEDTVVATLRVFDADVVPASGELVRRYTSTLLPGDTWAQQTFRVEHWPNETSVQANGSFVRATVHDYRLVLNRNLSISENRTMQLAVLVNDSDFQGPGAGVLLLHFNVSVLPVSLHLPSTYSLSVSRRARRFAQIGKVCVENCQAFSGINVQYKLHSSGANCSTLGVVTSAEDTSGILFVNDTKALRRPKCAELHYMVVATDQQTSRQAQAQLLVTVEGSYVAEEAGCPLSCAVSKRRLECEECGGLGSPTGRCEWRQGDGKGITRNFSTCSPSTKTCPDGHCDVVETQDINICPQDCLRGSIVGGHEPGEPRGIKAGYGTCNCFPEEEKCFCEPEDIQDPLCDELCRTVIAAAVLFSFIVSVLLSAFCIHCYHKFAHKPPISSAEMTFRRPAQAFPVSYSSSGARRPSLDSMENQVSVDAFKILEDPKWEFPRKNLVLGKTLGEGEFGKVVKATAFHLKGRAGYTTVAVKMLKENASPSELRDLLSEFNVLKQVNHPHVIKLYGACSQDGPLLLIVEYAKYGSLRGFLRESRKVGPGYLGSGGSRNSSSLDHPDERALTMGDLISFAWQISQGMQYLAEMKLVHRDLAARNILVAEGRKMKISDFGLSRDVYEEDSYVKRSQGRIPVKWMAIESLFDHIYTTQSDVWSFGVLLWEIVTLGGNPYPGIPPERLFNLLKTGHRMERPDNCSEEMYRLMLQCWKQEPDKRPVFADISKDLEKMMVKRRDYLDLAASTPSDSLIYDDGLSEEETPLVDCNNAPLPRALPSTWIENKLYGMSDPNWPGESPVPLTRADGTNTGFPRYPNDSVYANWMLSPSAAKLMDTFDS
smiles,measurement,setting,value
"CC(C)(O)COc1ccc2c(Oc3ccc(Nc4nccc5[nH]cc(-c6ccc(F)cc6)c(=O)c45)cc3F)ccnc2c1 [Example 4, 5-((3-fluoro-4-((7-(2-hydroxy-2-methylpropoxy)quinolin-4-yl)oxy)phenyl)amino)-3-(4-fluorophenyl)-1,6-naphthyridin-4(1H)-one]",IC50,[1],62 nM
same,CL,[2]; 5 mg/kg i.g.,2 mL/min/kg
same,Vz,[2]; 5 mg/kg i.g.,1.46 L/kg
same,AUC(0-t),"[2]; rat, plasma, iv, 1 mg/kg i.v.",11500 ng·h/mL
same,Cmax,"[2]; rat, plasma, iv, 1 mg/kg i.v.",10800 ng/mL
same,clearance,"[2]; rat, plasma, iv, 1 mg/kg i.v.",0.5 mL/min/kg
same,half-life,"[2]; rat, plasma, iv, 1 mg/kg i.v.",9.97 h
same,Vd,"[2]; rat, plasma, iv, 1 mg/kg i.v., read-out: Vz",0.47 L/kg
same,bioavailability,"[2]; rat, plasma, oral, 5 mg/kg i.g. vs 1 mg/kg i.v., read-out: F (absolute bioavailability)",71.8%
same,AUC(0-t),"[2]; rat, plasma, po, 5 mg/kg i.g.",41300 ng·h/mL
same,Cmax,"[2]; rat, plasma, po, 5 mg/kg i.g.",4310 ng/mL
same,half-life,"[2]; rat, plasma, po, 5 mg/kg i.g.",8.37 h
same,"Tumor growth inhibition rate, % TGI",[3]; 3 mg/kg p.o. QD,87.0%
same,"Tumor growth inhibition rate, % TGI",[3]; 10 mg/kg p.o. QD,105.9%
same,Regression of tumor (tumor regression rate),[3]; 6 animals per group,is 100% (6/6)
same,IC50,[4],15.7 nM
